One experiment deals with T1, PPARα (Homo sapiens, UniProt Q07869).
T1 construct: purchased Fujikura Kasei Co., Ltd. PPARA-CBP
T1 sequence (Q07869 1-468): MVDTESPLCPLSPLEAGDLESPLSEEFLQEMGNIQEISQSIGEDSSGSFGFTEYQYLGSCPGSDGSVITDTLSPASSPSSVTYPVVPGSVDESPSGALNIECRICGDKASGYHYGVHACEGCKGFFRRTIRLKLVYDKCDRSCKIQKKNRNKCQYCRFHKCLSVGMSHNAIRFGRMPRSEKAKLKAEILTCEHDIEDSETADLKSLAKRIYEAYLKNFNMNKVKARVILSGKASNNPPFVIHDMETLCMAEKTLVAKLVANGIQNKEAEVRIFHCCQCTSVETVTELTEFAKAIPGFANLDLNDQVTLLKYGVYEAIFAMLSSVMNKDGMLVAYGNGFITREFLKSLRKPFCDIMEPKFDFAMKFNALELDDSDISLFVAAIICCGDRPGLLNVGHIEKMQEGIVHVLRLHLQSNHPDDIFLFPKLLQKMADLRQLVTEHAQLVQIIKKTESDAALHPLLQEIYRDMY
The experiment can be described thus: Measurement of agonist activity against PPARα (EnBio RCAS for PPARα kit, PPARA-CBP). It is filed as biochemical. The note with it: evaluation concentration 10 μM, ratio to maximal response well (GW7647 0.5 μM); for activation at 10 µM: read-out: Binding ratio (%) @ 10 μM. The procedure:
(1) Measurement of Agonist Activity against PPARα
For the measurement of agonist activity against PPARα, the absorbance was measured according to the kit protocol using EnBio RCAS for PPARα kit (PPARA-CBP, Fujikura Kasei Co., Ltd.). A sample was dissolved in dimethylsulfoxide and added to a 96-well plate so as to have an evaluation concentration of 10 μM. GW7647 was added to a maximal response well so as to have a concentration of 0.5 μM. Dimethylsulfoxide was added to background wells. After subtracting the absorbance of the background well from the absorbance of each sample addition well, the ratio of each sample addition well to the maximal response well was calculated to evaluate the agonist activity (Binding ratio, %) against PPARα. Note that the sample addition wells and the background wells were duplicated, and the maximal response well was quadruplicated. As a positive control, 10 μM of a known PPARα agonist; Fenofibric acid (Tokyo Chemical Industry Co., Ltd.) was used.

In experiment [1] the test system is NAFLD model rats fed with a methionine/choline-deficient (MCD) diet. The experiment can be described thus: Non-alcoholic fatty liver disease (NAFLD) model rats induced by methionine/choline-deficient diet. It is filed as in vivo, Wistar rats. The note with it: for Plasma ALT as an indicator of liver damage: versus Vehicle group (FIG. 1A); for Liver TG level as an indicator of fatty liver: versus Vehicle group (FIG. 1B). The text has this:
(1) Evaluation Using Non-Alcoholic Fatty Liver Disease (NAFLD) Model Rats Induced by Methionine/Choline-Deficient Diet
As a NAFLD model, rats fed with a methionine/choline-deficient (MCD) diet were used to perform experiments. The MCD diet-fed model is widely used as a model for NAFLD/NASH.
Wistar rats (male, 8 weeks old, Charles River Laboratories Japan, Inc.) were fed with an MCD diet (A02082002B, Research Diets, Inc.) for 5 weeks. From the time of feeding the above diet for 1 week, the rats were divided into a Vehicle group, a COMPOUND 2 (50 mg/kg) group, and a Fenofibrate (100 mg/kg) group so that there was no difference in body weight between the groups (n=4 in each of the groups). The Normal group was fed with an MCS diet as a control diet for the MCD diet (A02082003B, Research Diets, Inc.) for the same period. The administration volume was 10 mL/kg, a 1% methylcellulose solution was repeatedly orally administered to the Vehicle group and the Normal group, and a COMPOUND 2 solution and a Fenofibrate solution were repeatedly orally administered to the COMPOUND 2 group and the Fenofibrate group, respectively, once a day for 4 weeks.
The day after the end of the final administration, blood was collected from the posterior vena cava under non-fasting conditions and isoflurane inhalation anesthesia, and plasma was collected. Further, the liver was removed and a part thereof was cryopreserved. Plasma ALT was measured by the JSCC standardized method. Triglyceride (TG) in the liver was extracted from the liver with a chloroform/methanol mixed solution (2:1, v/v), evaporated to dryness, and dissolved in 2-propanol, and then the amount was measured using Triglyceride E Test Wako. The results were each expressed as a mean value±standard deviation. Significant difference was tested between the Normal group and the Vehicle group using the Welch's t test (unpaired) (#: p<0.05 and ###: p<0.001), and significant difference was tested among the Vehicle group and the test substance administration groups using the Dunnett's test (*: p<0.05, **: p<0.01, and ***: p<0.001).

In experiment [2] the test system is ZDF rats with low urinary pH. Description: Low urinary pH improving effect in diabetic model Zucker Diabetic Fatty (ZDF) rats. Format: in vivo, ZDF (Lepr^fa/Lepr^fa) rats. The note with it: 24 h urine, versus Vehicle group (FIG. 2). The procedure:
(1) Evaluation Using Diabetic Models, Zucker Diabetic Fatty (ZDF) Rats
In this example, the low urinary pH improving effect of COMPOUND 2 was evaluated using diabetic model animals; ZDF rats with low urinary pH. Verinurad; a known URAT1 inhibitor was evaluated as a comparative control compound (the PPARα activating effect of Verinurad was evaluated by the method described in Test Example 1, and as a result, the binding ratio at an evaluation concentration of 10 μM was 3.80%, and no effect was confirmed).
ZDF (Lepr^fa/Lepr^fa) rats (male, 7 weeks old at the start of administration, Charles River Laboratories Japan, Inc.) were divided into a Vehicle group, a COMPOUND 2 (25 mg/kg) group, a COMPOUND 2 (50 mg/kg) group, and a Verinurad (50 mg/kg) group so that there was no difference in body weight between the groups (n=5 in each of the groups). As a Lean group, ZDF (Lean) rats, i.e., control animals of ZDF (Lepr^fa/Lepr^fa) rats, were used (n=5). The administration volume was 10 mL/kg, a 1% methylcellulose solution was repeatedly orally administered to the Vehicle group and the Lean group, and a COMPOUND 2 solutions and a Verinurad solution were repeatedly orally administered to the COMPOUND 2 groups and the Verinurad group, respectively, once a day for 15 days.
During the administration period, the pH of a urine sample obtained by urine collection was measured using a compact pH meter (B-712, Horiba, Ltd.). Urine collection was performed 6 days before the start of administration (pre), on the 1st day, 7th day and 14th day of administration, and urine was collected in a metabolic cage for 24 hours. The results were each expressed as a mean value±standard deviation. At each time point, significant difference was tested between the Lean group and the Vehicle group using the Student's t test (unpaired) (###: p<0.001). After one-way analysis of variance, significant difference was tested among the Vehicle group and the test substance administration groups using the Dunnett's test (*: p<0.05, **: p<0.01, and ***: p<0.001).

The mark [3] stands for this setting: 50 mg/kg oral once a day for 4 weeks.
[4] abbreviates: 50 mg/kg oral once a day for 15 days.
[5] abbreviates: 100 mg/kg oral once a day for 4 weeks.

Here are results for 19 compounds from patent publication US11278528B2, “Activator of peroxisome proliferator-activated receptor” (Nippon Chemiphar Co., Ltd., priority 2017, dated 2022).

Turning to `CC(C)(Sc1ccc2ncsc2c1-c1ccc(C#N)cc1)C(=O)O` [COMPOUND 1, 2-[[7-(4-cyanophenyl)benzo[d]thiazol-6-yl]thio]-2-methylpropanoic acid], on PPARα, the activation at 10 µM is 49.2%.

As to `CC(C)(Sc1ccc2cnsc2c1-c1ccc(C#N)cc1)C(=O)O` [COMPOUND 2, 2-[[7-(4-cyanophenyl)benzo[d]isothiazol-6-yl]thio]-2-methylpropanoic acid], in experiment [1] (setting [3]), the “Plasma ALT as an indicator of liver damage” value was “significantly lower values than the Vehicle group” and the “Liver TG level as an indicator of fatty liver” value is reported as “significantly lower”. The activation at 10 µM at PPARα stood at 69.8%. In experiment [2] (25 mg/kg oral once a day for 15 days), the “Urine pH” value is reported as “significantly increased from the 7th day of administration”. For the same compound, the “Urine pH” value in experiment [2] (setting [4]) is “significantly increased from the 1st day of administration”.

Take `CC(C)(Oc1cc2ncsc2cc1-c1ccc(C#N)cc1)C(=O)O` [COMPOUND 3, 2-[[6-(4-cyanophenyl)benzo[d]thiazol-5-yl]oxy]-2-methylpropanoic acid]: the activation at 10 µM at PPARα amounted to 16%.

As for `CC(C)(Sc1ccc2ccccc2c1-c1ccc(C#N)cc1)C(=O)O` [COMPOUND 4, 2-[[1-(4-cyanophenyl)naphthalen-2-yl]thio]-2-methylpropanoic acid], the activation at 10 µM at PPARα came to 52.6%.

As to `Cc1nsc2c(-c3ccc(C#N)cc3)c(SC(C)(C)C(=O)O)ccc12` [COMPOUND 5, 2-[[7-(4-cyanophenyl)-3-methylbenzo[d]isothiazol-6-yl]thio]-2-methyl propanoic acid], the activation at 10 µM at PPARα came out at 41.8%.

On to `CC(C)(Sc1ccc2nc(C(F)(F)F)sc2c1-c1ccc(C#N)cc1)C(=O)O` [COMPOUND 6, 2-[[7-(4-cyanophenyl)-2-(trifluoromethyl)benzo[d]thiazol-6-yl]thio]-2-methylpropanoic acid], for which the activation at 10 µM at PPARα turned out to be 24.7%.

As to `Cc1nc2ccc(SC(C)(C)C(=O)O)c(-c3ccc(C#N)cc3)c2s1` [COMPOUND 7, 2-[[7-(4-cyanophenyl)-2-methylbenzo[d]thiazol-6-yl]thio]-2-methylpropanoic acid], at PPARα, the activation at 10 µM is 47%.

`N#Cc1ccc(-c2c(SC3(C(=O)O)CCC3)ccc3cnsc23)cc1` [COMPOUND 8, 1-[[7-(4-cyanophenyl)benzo[d]isothiazol-6-yl]thio]cyclobutan-1-carboxylic acid]: at PPARα, the activation at 10 µM is 29.9%.

As for `CC(C)(Sc1ccc2cnsc2c1-c1ccc(C(F)(F)F)cc1)C(=O)O` [COMPOUND 9, 2-methyl-2-[[7-[4-(tri-fluoromethyl)phenyl]benzo[d]iso-thiazol-6-yl]thio]propanoic acid], at PPARα, the activation at 10 µM was 87%.

On to `CC(C)(Sc1cc(F)c2cnsc2c1-c1ccc(C#N)cc1)C(=O)O` [COMPOUND 10, 2-[[7-(4-cyanophenyl)-4-fluorobenzo[d]isothiazol-6-yl]thio]-2-methylpropanoic acid], for which, at PPARα, the activation at 10 µM came out at 71.3%.

With `N#Cc1ccc(-c2c(SC3(C(=O)O)CCCC3)ccc3cnsc23)cc1` [COMPOUND 11, 1-[[7-(4-cyanophenyl)benzo[d]isothiazol-6-yl]thio]cyclopentan-1-carboxylic acid], the activation at 10 µM on PPARα was found to be 21.7%.

On to `CC(C)(Sc1ccc2cnsc2c1-c1ccc(Cl)cc1)C(=O)O` [COMPOUND 12, 2-[[7-(4-chlorophenyl)benzo[d]isothiazol-6-yl]thio]-2-methylpropanoic acid], for which, at PPARα, the activation at 10 µM is 92.6%.

Turning to `Cc1cc(-c2c(SC(C)(C)C(=O)O)ccc3cnsc23)ccc1C#N` [COMPOUND 13, 2-[[7-(4-cyano-3-methylphenyl)benzo[d]isothiazol-6-yl]thio]-2-methylpropanoic acid], the activation at 10 µM on PPARα was determined as 20.8%.

For the compound `Cc1nsc2c(-c3ccc(C#N)cc3)c(SC3(C(=O)O)CCC3)ccc12` [COMPOUND 14, 1-[[7-(4-cyanophenyl)-3-methylbenzo[d]isothiazol-6-yl]thio]cyclobutan-1-carboxylic acid], the activation at 10 µM at PPARα amounted to 26.5%.

For `CCC(CC)(Sc1ccc2cnsc2c1-c1ccc(C#N)cc1)C(=O)O` [COMPOUND 15, 2-[[7-(4-cyanophenyl)benzo[d]isothiazol-6-yl]thio]-2-ethylbutanoic acid], on PPARα, the activation at 10 µM turned out to be 59%.

As to `CC(C)(C)C(Sc1ccc2cnsc2c1-c1ccc(C#N)cc1)C(=O)O` (stereo not shown) [COMPOUND 16, 2-[[7-(4-cyanophenyl)benzo[d]isothiazol-6-yl]thio]-3,3-dimethylbutanoic acid], on PPARα, the activation at 10 µM is 11.8%.

Regarding `CC(C)(Oc1ccc(C(=O)c2ccc(Cl)cc2)cc1)C(=O)O` [Fenofibric acid, 2-[4-(4-chlorobenzoyl)phenoxy]-2-methylpropionic acid, reference compound], the “Binding ratio (%) @ 10 μM” value on PPARα came out at 50.46%.

Regarding `CC(C)(Sc1ccncc1-c1ccc(C#N)c2ccccc12)C(=O)O` [Verinurad, reference compound], the activation at 10 µM on PPARα is 3.8%. In addition, the “Urine pH” value in experiment [2] (setting [4]) is listed as “no low urinary pH improving effect was observed throughout the administration period”.

As to fenofibrate [reference compound], in experiment [1] (setting [5]), the “Plasma ALT as an indicator of liver damage” value is “significantly lower values than the Vehicle group” and the “Liver TG level as an indicator of fatty liver” value is on record as “significantly lower”.
